{"source": "patent US12371454B2", "about": "“Cyclic peptide compound having Kras inhibitory action” (priority 2019, dated 2025)", "note": "Starred links: 1 amine or outer side, 2 acyl side, 3 side chain; linkers in the order of their positions; H or OH if unused. Positions of bridges follow the written chain, without caps; N, C: chain ends. Non-standard residues stand in square brackets, D forms with d. Residues, ends and D or L forms follow the SMILES beside them. *: point of attachment. hPhe(3-Cl-4-CF3) = N[C@@H](CCc1ccc(C(F)(F)F)c(Cl)c1)C(=O)O; NMePhe(4-CF3) = CN[C@@H](Cc1ccc(C(F)(F)F)cc1)C(=O)O; NMePhe(4-Cl) = CN[C@@H](Cc1ccc(Cl)cc1)C(=O)O; X42 = Cc1ccc(I)cc1C[C@H](N[*:1])C(=O)[*:2]; NMeGly(cPent) = CN[C@H](C(=O)O)C1CCCC1; Phe(3-Me) = Cc1cccc(C[C@H](N)C(=O)O)c1; NMeAla(cPr) = CN[C@@H](CC1CC1)C(=O)O; NMeY = CN[C@@H](Cc1ccc(O)cc1)C(=O)O; NMeCha = CN[C@@H](CC1CCCCC1)C(=O)O; NMehLeu = CN[C@@H](CCC(C)C)C(=O)O; NMeF = CN[C@@H](Cc1ccccc1)C(=O)O; dNMeF = CN[C@H](Cc1ccccc1)C(=O)O; NMeD = CN[C@@H](CC(=O)O)C(=O)O; NMeL = CN[C@@H](CC(C)C)C(=O)O; NMeV = CN[C@H](C(=O)O)C(C)C; d(β3hA) = C[C@@H](N)CC(=O)O; NMeAbu = CC[C@H](NC)C(=O)O; NMeA = CN[C@@H](C)C(=O)O; NMeAib = CNC(C)(C)C(=O)O; Nle = CCCC[C@H](N)C(=O)O; Piperidide = C1CCN(*)CC1; Pyrrolidide = C1CCN(*)C1; dNMeA = CN[C@H](C)C(=O)O; Ac5c = NC1(C(=O)O)CCCC1; Aze = O=C(O)[C@@H]1CCN1; NcPrGly = O=C(O)CNC1CC1; Sar = CNCC(=O)O"}
{"molecular_target": "T1, Kras and SOS1 (biotin-tagged human Kras loaded with GDP, His-tagged human SOS1) (Homo sapiens, UniProt P01116, G12D)", "T1 construct": "made in house; host or cells: E. coli (stated for Kras only)", "T1 sequence (P01116 1-188 isoform P01116-2 G12D)": "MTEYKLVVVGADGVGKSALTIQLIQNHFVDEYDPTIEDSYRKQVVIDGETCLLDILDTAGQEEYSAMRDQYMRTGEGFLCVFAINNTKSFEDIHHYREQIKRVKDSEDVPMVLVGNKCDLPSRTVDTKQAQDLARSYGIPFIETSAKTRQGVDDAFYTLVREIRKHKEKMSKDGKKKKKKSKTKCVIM", "test": "Protein-protein interaction inhibition between Kras and SOS1 (KrasGl2D-SOS PPI) using AlphaScreen", "type": "binding", "settings": "AlphaScreen; biotin-tagged human Kras loaded with GDP, His-tagged human SOS1; read-out: KRAS G12D-SOS PPI IC50", "how_it_was_run": "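AlphaScreen format: Ni donor beads capture His-SOS1, streptavidin acceptor beads capture biotinylated Kras (E. coli-expressed, GDP-loaded post-purification). Excite 680 nm, read 520-620 nm.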", "units": {"IC50": "nM"}}
{"smiles": "CC[C@H](C)[C@@H]1NC(=O)[C@H](CC(C)C)N(C)C(=O)C[C@@H](C(=O)N2CCCCC2)N(C)C(=O)[C@H](C2CCCC2)N(C)C(=O)C2(CCCC2)NC(=O)[C@@H](Cc2ccccc2)N(C)C(=O)[C@H](CCc2ccc(C(F)(F)F)c(Cl)c2)NC(=O)CN(C)C(=O)[C@H](CC2CCCCC2)N(C)C(=O)[C@@H]2CCN2C(=O)[C@H](C)N(C)C1=O", "note": "[Compound 1434] ([NMeL]I[NMeA][Aze][NMeCha][Sar][hPhe(3-Cl-4-CF3)][dNMeF][Ac5c][NMeGly(cPent)][NMeD]-Piperidide; lactam N-11)", "IC50": 150}
{"smiles": "CC[C@H](C)[C@@H]1NC(=O)[C@H](CC(C)C)N(C)C(=O)C[C@@H](C)NC(=O)[C@H](C(C)C)N(C)C(=O)C2(CCCC2)NC(=O)[C@@H]2CCCN2C(=O)[C@H](CCc2ccc(C(F)(F)F)c(Cl)c2)NC(=O)CN(C2CC2)C(=O)[C@H](CC2CCCCC2)N(C)C(=O)CN(C)C(=O)CN(C)C1=O", "note": "[Compound 204] (cyclo([Ac5c][NMeV][d(β3hA)][NMeL]I[Sar][Sar][NMeCha][NcPrGly][hPhe(3-Cl-4-CF3)]P))", "IC50": 180}
{"smiles": "CC[C@H](C)[C@@H]1NC(=O)[C@H](CC2CC2)N(C)C(=O)C[C@@H](C)NC(=O)[C@H](C(C)C)N(C)C(=O)C2(CCCC2)NC(=O)[C@@H]2CCCN2C(=O)[C@H](CCc2ccc(C(F)(F)F)c(Cl)c2)NC(=O)CN(C)C(=O)[C@H](CC2CCCCC2)N(C)C(=O)CN(C)C(=O)CN(C)C1=O", "note": "[Compound 248] (cyclo([Ac5c][NMeV][d(β3hA)][NMeAla(cPr)]I[Sar][Sar][NMeCha][Sar][hPhe(3-Cl-4-CF3)]P))", "IC50": 31}
{"smiles": "CC[C@H](C)[C@@H]1NC(=O)[C@H](CC(C)C)N(C)C(=O)C[C@@H](C(=O)N2CCCCC2)N(C)C(=O)[C@H](C(C)C)N(C)C(=O)C2(CCCC2)NC(=O)[C@@H]2CCCN2C(=O)[C@H](CCc2ccc(C(F)(F)F)c(Cl)c2)NC(=O)CN(C)C(=O)[C@H](CC2CCCCC2)N(C)C(=O)[C@@H]2CCN2C(=O)[C@H](CCC(C)C)N(C)C1=O", "note": "[Compound 1577] ([NMeL]I[NMehLeu][Aze][NMeCha][Sar][hPhe(3-Cl-4-CF3)]P[Ac5c][NMeV][NMeD]-Piperidide; lactam N-11)", "IC50": 50}
{"smiles": "CCCC[C@@H]1NC(=O)[C@H](Cc2cc(I)ccc2C)NC(=O)CN(C)C(=O)[C@H](Cc2ccc(OC)cc2)N(C)C(=O)[C@@H]2CCN2C(=O)[C@H](C)N(C)C(=O)[C@H]([C@@H](C)CC)NC(=O)[C@H](CC)N(C)C(=O)C[C@@H](C(=O)N2CCCCC2)N(C)C(=O)[C@H](CC(C)C)NC(=O)C(C)(C)N(C)C1=O", "note": "[Compound 1358] ([NMeAbu]I[NMeA][Aze][NMeY](Me)[Sar][X42][Nle][NMeAib]L[NMeD]-Piperidide; lactam N-11)", "IC50": 19}
{"smiles": "CC[C@H](C)[C@@H]1NC(=O)[C@H](C)N(C)C(=O)C[C@@H](C(=O)N2CCCC2)NC(=O)[C@H](C(C)C)N(C)C(=O)[C@H](Cc2ccccc2)N(C)C(=O)[C@H](Cc2ccccc2)NC(=O)[C@H](Cc2cccc(C)c2)NC(=O)CN(C)C(=O)[C@H](Cc2ccc(Cl)cc2)N(C)C(=O)CN(C)C(=O)CN(C)C1=O", "note": "[Compound 467] ([NMeA]I[Sar][Sar][NMePhe(4-Cl)][Sar][Phe(3-Me)]F[NMeF][NMeV]D-Pyrrolidide; lactam N-11)", "IC50": 200}
{"smiles": "CC[C@H](C)[C@@H]1NC(=O)[C@H](CC(C)C)N(C)C(=O)C[C@@H](C)NC(=O)[C@H](C2CCCC2)N(C)C(=O)C2(CCCC2)NC(=O)[C@@H]2CCCN2C(=O)[C@H](CCc2ccc(C(F)(F)F)c(Cl)c2)NC(=O)[C@@H](C)N(C)C(=O)[C@H](Cc2ccc(C(F)(F)F)cc2)N(C)C(=O)CN(C)C(=O)CN(C)C1=O", "note": "[Compound 1542] (cyclo([Ac5c][NMeGly(cPent)][d(β3hA)][NMeL]I[Sar][Sar][NMePhe(4-CF3)][dNMeA][hPhe(3-Cl-4-CF3)]P))", "IC50": 170}
